Laboratory results reported in patent publication US7018796B2, “Preincubation assay methods” (Shionogi & Co., Ltd., priority 2000, dated 2006).
Entries after “also recorded” stand apart in the source; their conditions may differ.

Biological target: T1, HCV RNA-dependent RNA polymerase (Hepatitis C virus genotype 1a, UniProt P27958)
T1 construct: HCV RNA-dependent RNA polymerase is encoded in the NS5B (nonstructural protein 5B) region of HCV; made in house; host or cells: insect cells or E. coli
T1 sequence (P27958 2421-3011): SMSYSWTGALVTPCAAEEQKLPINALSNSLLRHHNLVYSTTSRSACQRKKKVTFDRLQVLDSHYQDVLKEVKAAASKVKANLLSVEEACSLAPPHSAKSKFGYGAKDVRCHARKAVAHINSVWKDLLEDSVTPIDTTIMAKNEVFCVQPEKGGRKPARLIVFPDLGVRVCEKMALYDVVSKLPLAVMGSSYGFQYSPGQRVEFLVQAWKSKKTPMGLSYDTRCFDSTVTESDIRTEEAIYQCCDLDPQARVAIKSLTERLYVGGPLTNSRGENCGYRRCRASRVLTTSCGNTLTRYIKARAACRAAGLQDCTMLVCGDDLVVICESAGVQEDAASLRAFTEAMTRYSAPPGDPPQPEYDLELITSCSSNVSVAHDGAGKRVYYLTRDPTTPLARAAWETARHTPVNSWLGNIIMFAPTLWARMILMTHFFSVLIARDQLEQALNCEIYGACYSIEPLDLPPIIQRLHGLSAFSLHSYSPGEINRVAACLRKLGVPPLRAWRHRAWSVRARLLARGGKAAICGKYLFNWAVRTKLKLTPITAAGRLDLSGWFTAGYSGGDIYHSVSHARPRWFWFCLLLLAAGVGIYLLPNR
Test: Prior assay method without pre-incubation, 3H-UTP (Reference 1)
Type: biochemical
Settings: no pre-incubation
From the text: A HCV RNA-dependent RNA polymerase, template RNA, primer RNA, substrate RNA, Mg ion (Mg^2+) and a test substance are mixed at the same time to start an enzyme reaction and measure an enzyme activity. It can be known whether a test substance activates or inhibits an activity of a HCV RNA-dependent RNA polymerase by comparing the above value of an enzyme activity with that measured in the absence of a test substance. IC50 value can be used, which is a concentration of a test substance able to inhibit 50% of an enzyme activity. For example, one of prior methods can be carried out in accordance with the later described Reference 1.
A cDNA encoding HCV RNA-dependent RNA polymerase was made by use of HCV positive human plasma and HCV RNA-dependent RNA polymerase was expressed using the insect cells or the E. coli. HCV RNA-dependent RNA polymerase in the cell extract was purified by use of an anion exchange chromatography, a heparin affinity chromatography, a polyU affinity chromatography, a cation exchange chromatography and gel filtration chromatography. The purification was performed at 4° C. and Tris buffer (pH 7.5) containing ethylenediaminetetraacetic acid (1 mM), dithiothreitol (10 mM) and glycerol (20%) was used. The enzyme purified was stored at 4° C. until use for the assays.
The prior assay method using HCV RNA-dependent RNA polymerase • 1) The buffer I ^1) (10.5 μl) containing Tris-HCl (100 mM, pH 7.5), MgCl2 (25 mM), dithiothreitol (5 mM), KCl (125 mM) and ethylenediaminetetraacetic acid (5 mM) was transferred to a polypropylene tube and then poly(A)^2) solution (100 μg/ml, 10.5 μl), oligo(U)12 ^3) solution (1 μg/ml, 10.5 μl) and water (8 μl) were added into the tube. After mixing, the tube was cooled on ice. • 2) Next, HCV RNA-dependent RNA polymerase (10.5 μl) cooled on ice was added into the tube and mixed. • 3) The mixture cooled (50 μl) was added to a test compound (5.26 μl/well) dissolved with dimethyl sulfoxide or water in a well of a 96-wells microtiter plate. • 4) Additionally, the buffer II (10.6 μl) containing Tris-HCl (100 mM, pH 7.5), MgCl2 (25 mM), dithiothreitol (5 mM), KCl (125 mM), ethylenediaminetetraacetic acid (5 mM) and UTP ^4) (2.1 μM, 1 μCi ^3H-UTP), was mixed with water (39.4 μl). The mixture (50 μl) was added into the well and mix, and then the enzyme reaction was performed at 25° C. for 30 min. • 5) After enzyme reaction for 30 min, the enzyme reaction was stopped by adding disodium ethylenediaminetetraacetic acid (50 mM, 50 μl). • 6) By use of the cell-harvester, all volume of the enzyme reaction sample which was described in 5) was transferred onto a DEAE-filtermat and washed twice for 10 see with sodium phosphate buffer (0.25 M, pH 7.0) and once for 10 sec with de-ionized water. • 7) The DEAE-filtermat was dried at 95° C. for 15 min and transferred into a sample bag with liquid scintillater (10 ml), and then a sample bag was sealed. • 8) The radio activity was measured by a scintillation counter. • 9) The inhibitory rate was calculated from the radioactivity measured (ccpm) as follows. [formula]

[1] = prior method, I-1 0.5 μg/ml, 3′-dUTP 0.7 μM, A 100 μg/ml, B 50 μg/ml, C 25 μg/ml

Structure (SMILES)	Judgement in the prior method (positive / negative)	Inhibitory rate (Table 3) [1] [%]	inhibition at 0.5 µg/mL (prior method, I-1 0.5 μg/ml, 3′-dUTP 0.7 μM, A 100 μg/ml, B 50 μg/ml, C 25 μg/ml, read-out: Inhibitory rate (Table 3)) [%]
CCCCC1=N/C(=C\c2ccccc2OCC(=O)O)C(=O)N1Cc1ccc(-c2ccccc2-c2nnn[nH]2)cc1 [Compound C]	positive data; also recorded: positive result	67	
O=c1ccn([C@@H]2O[C@H](COP(=O)(O)OP(=O)(O)OP(=O)(O)O)C[C@H]2O)c(=O)[nH]1 [3′-dUTP, 3′-deoxyuridine triphosphate]		68	
O=C(O)/C(O)=C/C(=O)c1cccc(O)c1 [Compound I-1]			62
Cc1oc(-c2ccccc2)nc1CCOc1ccc(C=C2C(=O)NC(=O)NC2=O)cc1 [Compound A]	positive data	50	
O=C1NC(=O)C(=Cc2ccc(OCCc3cccc4ccccc34)cc2)C(=O)N1 [Compound B]	positive data	63	
